# Experimental data: patent publication US20020170078A1, “Calcineurin-related transgenic mammals, compositions and methods” (priority 2001, published 2002)
# Test system: Schaffer collateral pathway to area CA1 of hippocampal slices
# Assay: 1-train (100 Hz) LTP, field potential recordings in hippocampal slices
# Type: cell-based, mouse
SMILES,"effect on the enhanced LTP (100 uM, at least 20 min pretreatment, mutant slices)","1-train LTP, % baseline 30 min after tetanus","effect on 1-train LTP (control slices, 30 min pretreatment)",effect on the increased potentiation (enhanced 1-train LTP) (mutant slices)
NC(CCCP(=O)(O)O)C(=O)O (racemic) [DL-AP5],abolished,–,–,–
CCCCCCOC(=O)[C@]1(O)C[C@@H]2O[C@@]1(C)n1c3ccccc3c3c4c(c5c6ccccc6n2c5c31)C(=O)NC4 [KT5720],–,134±6 % baseline,no effect,suppressed
